# Like-named read-outs stand apart in the source and are kept apart here.
# Tests used:
# [1] = target: GD H6 HA (Influenza A virus (A/chicken/Guangdong/S1311/2010(H6N6)), UniProt A0A067YZV9); conditions: 2 h, pH 8.0, receptor-binding site
# [2] = target: A/Taiwan/2/2013(H6N1) hemagglutinin ectodomain, trypsin-cleaved into HA1 and HA2 (influenza A virus A/Taiwan/2/2013(H6N1)); assay: crystal structure
# [3] = target: A/chicken/Guangdong/S1311/2010(H6N6) hemagglutinin ectodomain, trypsin-cleaved into HA1 and HA2 (influenza A virus A/chicken/Guangdong/S1311/2010(H6N6)); assay: crystal structure
compound,measurement,setting,value
CC(=O)N[C@H]1[C@H](O[C@H]2[C@@H](O)[C@@H](CO)O[C@@H](O[C@H]3[C@H](O)[C@@H](O)C(O)O[C@@H]3CO)[C@@H]2O)O[C@H](CO)[C@@H](O)[C@@H]1O[C@@H]1O[C@H](CO)[C@H](O)[C@H](O[C@]2(C(=O)O)C[C@H](O)[C@@H](NC(C)=O)[C@H]([C@H](O)[C@H](O)CO)O2)[C@H]1O (stereo partly shown) [LSTa],X-ray crystal structure of complex,"[1]; crystal soaked with 5 mM LSTa, first three sugars visible",Gal-2 and GlcNAc-3 of the LSTa are clearly visualized in both GD and TW H6 HA
CC(=O)N[C@H]1[C@H](O[C@H]2[C@@H](O)[C@@H](CO)O[C@@H](O[C@H]3[C@H](O)[C@@H](O)C(O)O[C@@H]3CO)[C@@H]2O)O[C@H](CO)[C@@H](O[C@@H]2O[C@H](CO[C@]3(C(=O)O)C[C@H](O)[C@@H](NC(C)=O)[C@H]([C@H](O)[C@H](O)CO)O3)[C@H](O)[C@H](O)[C@H]2O)[C@@H]1O (stereo partly shown) [LSTc],X-ray crystal structure of complex,"[1]; crystal soaked with 5 mM LSTc, first two sugars visible",only the first two sugar rings are clearly visible in the complex structure of GD H6 HA-LSTc
"A/Taiwan/2/2013(H6N1) hemagglutinin ectodomain, trypsin-cleaved into HA1 and HA2 (domain or fragment)",stoichiometry N,[2],3
"A/chicken/Guangdong/S1311/2010(H6N6) hemagglutinin ectodomain, trypsin-cleaved into HA1 and HA2 (domain or fragment)",stoichiometry N,[3],3
